This note sets out measurements from US20250129078A1, “ERBB2 INHIBITORS” (Cogent Biosciences, Inc., priority 2023, published 2025).

The target of one assay is ErbB2 V777L (Homo sapiens (Human), UniProt P04626, V777L). The experiment in a line: ErbB enzyme assay (CisBio HTRF-KinEASE-TK), ErbB2 V777L. In kind it is biochemical. In a few lines: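 HTRF KinEASE-TK tyrosine-kinase read-out of substrate phosphorylation after a final 1 h at ambient temperature, from the 655/620 nm emission ratio.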
The next assay addresses EGFR WT (Homo sapiens (Human), UniProt P00533). As to the kind of experiment: ErbB enzyme assay (CisBio HTRF-KinEASE-TK), EGFR WT. It counts as biochemical. The following applies: ATP at Km (25 μM), 1 h incubation. In a few lines:
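HTRF KinEASE-TK kinase reactions ran 1 h at ambient temperature with three-fold serial compound dilutions, then were quenched with Sa-XL665 and TK-Ab-Cryptate. After 1 h more, 655/620 nm time-resolved fluorescence gave percent of control; a 4-parameter logistic fit defined IC50 at 50 POC.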

EGFR WT, sequence (P00533 25-1210): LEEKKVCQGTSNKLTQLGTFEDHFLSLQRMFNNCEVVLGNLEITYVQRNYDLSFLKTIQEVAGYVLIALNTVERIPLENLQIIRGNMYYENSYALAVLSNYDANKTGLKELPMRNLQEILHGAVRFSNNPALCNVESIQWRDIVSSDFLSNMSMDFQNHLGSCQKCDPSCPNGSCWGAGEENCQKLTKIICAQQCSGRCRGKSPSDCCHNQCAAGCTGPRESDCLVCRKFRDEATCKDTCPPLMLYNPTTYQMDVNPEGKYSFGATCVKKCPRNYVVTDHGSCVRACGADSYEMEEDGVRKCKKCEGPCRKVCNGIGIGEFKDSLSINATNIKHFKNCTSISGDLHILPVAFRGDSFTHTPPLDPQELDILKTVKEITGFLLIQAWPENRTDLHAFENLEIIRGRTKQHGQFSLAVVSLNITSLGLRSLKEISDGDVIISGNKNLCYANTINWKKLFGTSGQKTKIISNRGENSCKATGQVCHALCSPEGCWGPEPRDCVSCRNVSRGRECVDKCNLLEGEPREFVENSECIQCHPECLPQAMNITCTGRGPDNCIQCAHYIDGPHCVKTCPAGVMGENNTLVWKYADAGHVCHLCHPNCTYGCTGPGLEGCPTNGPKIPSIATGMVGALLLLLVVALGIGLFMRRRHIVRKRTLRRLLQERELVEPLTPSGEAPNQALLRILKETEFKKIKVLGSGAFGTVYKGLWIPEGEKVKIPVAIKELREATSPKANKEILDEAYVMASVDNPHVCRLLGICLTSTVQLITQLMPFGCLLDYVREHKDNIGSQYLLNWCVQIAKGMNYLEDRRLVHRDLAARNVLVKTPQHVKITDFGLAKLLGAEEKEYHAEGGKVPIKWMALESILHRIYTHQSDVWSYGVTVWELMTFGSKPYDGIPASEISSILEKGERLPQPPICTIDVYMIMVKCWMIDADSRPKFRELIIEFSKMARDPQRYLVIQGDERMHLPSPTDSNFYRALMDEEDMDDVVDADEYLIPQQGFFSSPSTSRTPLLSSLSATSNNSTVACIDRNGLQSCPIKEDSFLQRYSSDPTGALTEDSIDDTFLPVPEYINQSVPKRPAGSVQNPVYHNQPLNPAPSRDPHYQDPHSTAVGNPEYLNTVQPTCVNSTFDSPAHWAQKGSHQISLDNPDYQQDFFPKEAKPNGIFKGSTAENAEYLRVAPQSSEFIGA
ErbB2 V777L, sequence (P04626 23-1255 V777L): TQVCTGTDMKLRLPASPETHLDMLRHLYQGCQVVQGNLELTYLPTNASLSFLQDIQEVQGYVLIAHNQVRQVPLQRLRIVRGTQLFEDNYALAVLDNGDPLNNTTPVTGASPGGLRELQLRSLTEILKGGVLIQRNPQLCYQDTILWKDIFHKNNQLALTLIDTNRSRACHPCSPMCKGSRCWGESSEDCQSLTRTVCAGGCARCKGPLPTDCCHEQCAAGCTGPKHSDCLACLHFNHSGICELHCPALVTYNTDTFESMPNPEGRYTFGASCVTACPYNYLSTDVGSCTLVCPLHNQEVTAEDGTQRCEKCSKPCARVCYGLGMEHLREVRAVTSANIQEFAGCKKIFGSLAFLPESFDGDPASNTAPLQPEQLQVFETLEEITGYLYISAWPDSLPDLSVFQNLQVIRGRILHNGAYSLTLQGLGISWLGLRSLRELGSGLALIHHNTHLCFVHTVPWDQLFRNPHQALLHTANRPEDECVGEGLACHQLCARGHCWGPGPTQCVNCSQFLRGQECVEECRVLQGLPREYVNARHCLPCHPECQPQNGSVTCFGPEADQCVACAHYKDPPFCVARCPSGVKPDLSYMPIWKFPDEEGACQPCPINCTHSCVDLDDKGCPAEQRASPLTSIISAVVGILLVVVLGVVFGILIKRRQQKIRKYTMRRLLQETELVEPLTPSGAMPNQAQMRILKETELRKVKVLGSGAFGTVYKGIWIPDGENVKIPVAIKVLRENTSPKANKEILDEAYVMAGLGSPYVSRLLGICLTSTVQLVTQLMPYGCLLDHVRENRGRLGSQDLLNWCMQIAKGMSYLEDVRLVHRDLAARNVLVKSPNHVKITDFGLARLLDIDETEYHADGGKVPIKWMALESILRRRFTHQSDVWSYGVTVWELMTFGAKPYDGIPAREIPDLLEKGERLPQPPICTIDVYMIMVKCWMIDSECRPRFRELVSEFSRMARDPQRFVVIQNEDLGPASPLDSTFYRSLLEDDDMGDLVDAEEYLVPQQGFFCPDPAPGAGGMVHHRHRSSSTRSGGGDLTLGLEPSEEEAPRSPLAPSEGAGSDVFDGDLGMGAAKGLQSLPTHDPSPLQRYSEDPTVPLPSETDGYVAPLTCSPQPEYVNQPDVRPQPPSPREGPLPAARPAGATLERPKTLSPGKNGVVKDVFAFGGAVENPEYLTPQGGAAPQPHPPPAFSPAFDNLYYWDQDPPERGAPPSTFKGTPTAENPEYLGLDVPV

Take `C=CC(=O)N1CCC2(CCN(c3ccc4ncnc(Nc5ccc(Oc6ccc7c(c6)nnn7C)c(C)c5)c4n3)C2)C1` (stereo not drawn) [Compound 311, 1-(7-(4-((3-methyl-4-((1-methyl-1H-benzo[d][1,2,3]triazol-5-yl)oxy)phenyl)amino)pyrido[3,2-d]pyrimidin-6-yl)-2,7-diazaspiro[4.4]nonan-2-yl)prop-2-en-1-one]: the IC50 at ErbB2 V777L was 0.5 to 1 µM; against EGFR WT, at least 1 µM.
The like results for `C=CC(=O)N1CCN(c2ncc3ncnc(Nc4ccc(Oc5ccc6c(c5)nnn6CC)c(C)c4)c3n2)CC1` [Compound 133, 1-(4-(8-((4-((1-ethyl-1H-benzo[d][1,2,3]triazol-5-yl)oxy)-3-methylphenyl)amino)pyrimido[5,4-d]pyrimidin-2-y1)piperazin-1-yl)prop-2-en-1-one] were, in that order, 0.1 to 0.5 µM and 0.5 to 1 µM.
As for `C=CC(=O)NC1CCN(c2ccc3ncnc(Nc4ccc(Oc5ccc6c(c5)nnn6C)c(C)c4)c3n2)CC1` [Compound 304, N-(1-(4-((3-methyl-4-((1-methyl-1H-benzo[d][1,2,3]triazol-5-yl)oxy)phenyl)amino)pyrido[3,2-d]pyrimidin-6-yl)piperidin-4-yl)acrylamide], the IC50 against ErbB2 V777L and on EGFR WT was 0.1 to 0.5 µM each time.
As for `C=CC(=O)N(C)[C@H]1C[C@H](Oc2ncc3ncnc(Nc4ccc(Oc5ccc6c(c5)ncn6C)c(C)c4)c3n2)C1` [Compound 382, N-methyl-N-((1r,3r)-3-((8-((3-methyl-4-((1-methyl-1H-benzo[d]imidazol-5-yl)oxy)phenyl)amino)pyrimido[5,4-d]pyrimidin-2-yl)oxy)cyclobutyl)acrylamide], the values for the IC50 against ErbB2 V777L and on EGFR WT were 0.05 to 0.1 µM and at least 1 µM, respectively.
For `C=CC(=O)N1CCN(c2ccc3ncnc(Nc4ccc(Oc5cnc6c(c5)ncn6C(F)F)c(C)c4F)c3n2)C[C@H]1C` [Compound 261, (R)-1-(4-(4-((4-((3-(difluoromethyl)-3H-imidazo[4,5-b]pyridin-6-yl)oxy)-2-fluoro-3-methylphenyl)amino)pyrido[3,2-d]pyrimidin-6-yl)-2-methylpiperazin-1-yl)prop-2-en-1-one] the same measures were 0.1 to 0.5 µM and under 0.05 µM.
For `C=CC(=O)N(C)C1C2CN(c3ncc4ncnc(Nc5ccc(Oc6ccc7c(c6)nnn7C)c(C)c5F)c4n3)CC21` (stereo not drawn) [Compound 226, N-(3-(8-((2-fluoro-3-methyl-4-((1-methyl-1H-benzo[d][1,2,3]triazol-5-yl)oxy)phenyl)amino)pyrimido[5,4-d]pyrimidin-2-yl)-3-azabicyclo[3.1.0]hexan-6-yl)-N-methylacrylamide] the same measures were 0.1 to 0.5 µM and 0.1 to 0.5 µM.
`C=CC(=O)N1CCN(c2ccc3ncnc(Nc4cc(F)c(Oc5ccc6c(c5)nnn6C)c(C)c4F)c3n2)CC1(C)C` [Compound 327, 1-(4-(4-((2,5-difluoro-3-methyl-4-((1-methyl-1H-benzo[d][1,2,3]triazol-5-yl)oxy)phenyl)amino)pyrido[3,2-d]pyrimidin-6-yl)-2,2-dimethylpiperazin-1-yl)prop-2-en-1-one]: the IC50 against ErbB2 V777L and at EGFR WT was 0.1 to 0.5 µM each time.
For `C=CC(=O)N1CC2CC(C1)N2c1ccc2ncnc(Nc3ccc(Oc4ccc5c(c4)nnn5C)c(C)c3)c2n1` [Compound 96, 1-(6-(4-((3-methyl-4-((1-methyl-1H-benzo[d][1,2,3]triazol-5-yl)oxy)phenyl)amino)pyrido[3,2-d]pyrimidin-6-yl)-3,6-diazabicyclo[3.1.1]heptan-3-yl)prop-2-en-1-one], the IC50 at ErbB2 V777L and on EGFR WT was 0.1 to 0.5 µM throughout.
For `C=CC(=O)N1CCN(c2ncc3ncnc(Nc4cc(C)c(Oc5ccc6c(c5)nnn6C)cc4F)c3n2)CC1` [Compound 6, 1-(4-(8-((2-fluoro-5-methyl-4-((1-methyl-1H-benzo[d][1,2,3]triazol-5-yl)oxy)phenyl)amino)pyrimido [5,4-d]pyrimidin-2-yl)piperazin-1-yl)prop-2-en-1-one], the IC50 against ErbB2 V777L and against EGFR WT was 0.1 to 0.5 µM in each case.
As for `C=CC(=O)N1CC2C(C1)N2c1ncc2ncnc(Nc3ccc(Oc4ccc5c(c4)nnn5C)c(C)c3)c2n1` (stereo not drawn) [Compound 242, 1-(6-(8-((3-methyl-4-((1-methyl-1H-benzo[d][1,2,3]triazol-5-yl)oxy)phenyl)amino)pyrimido[5,4-d]pyrimidin-2-yl)-3,6-diazabicyclo[3.1.0]hexan-3-yl)prop-2-en-1-one], the IC50 against ErbB2 V777L is 0.5 to 1 µM; against EGFR WT, 0.1 to 0.5 µM.
For `C=C1CCN(C2CCN(c3ncc4ncnc(Nc5ccc(Oc6ccn7ncnc7c6)c(C)c5)c4n3)CC2)C1=O` [Compound 240, 1-(1-(8-((4-([1,2,4]triazolo[1,5-a]pyridin-7-yloxy)-3-methylphenyl)amino)pyrimido[5,4-d]pyrimidin-2-yl)piperidin-4-yl)-3-methylenepyrrolidin-2-one] the same measures were 0.1 to 0.5 µM and at least 1 µM.
As to `C=CC(=O)N1CCN(c2ncc3ncnc(Nc4cc(C)c(Oc5cc(F)c6c(c5)nnn6C)cc4OC)c3n2)C[C@H]1C` [Compound 164, (R)-1-(4-(8-((4-((7-fluoro-1-methyl-1H-benzo[d][1,2,3]triazol-5-yl)oxy)-2-methoxy-5-methylphenyl)amino)pyrimido[5,4-d]pyrimidin-2-y1)-2-methylpiperazin-1-yl)prop-2-en-1-one], the IC50 against ErbB2 V777L and against EGFR WT was 0.5 to 1 µM throughout.
On to `C=CC(=O)N1CC[C@H]2CN(c3ncc4ncnc(Nc5ccc(Oc6ccc7c(c6)nnn7C)c(C)c5)c4n3)C[C@H]21` [Compound 149, 1-((3aS,6aS)-5-(8-((3-methyl-4-((1-methyl-1H-benzo[d][1,2,3]triazol-5-yl)oxy)phenyl)amino)pyrimido [5,4-d]pyrimidin-2-yl)hexahydropyrrolo[3,4-b]pyrrol-1(2H)-y1)prop-2-en-1-one], for which the IC50 fell in the range of 0.1 to 0.5 µM on ErbB2 V777L and 0.5 to 1 µM on EGFR WT.
In the case of `C=CC(=O)N1C[C@H](C)N(c2ncc3ncnc(Nc4ccc(Oc5ccc6c(c5)nnn6C)c(C)c4)c3n2)C[C@@H]1C` [Compound 187, 1-((2S,5S)-2,5-dimethyl-4-(8-((3-methyl-4-((1-methyl-1H-benzo[d][1,2,3]triazol-5-yl)oxy)phenyl)amino)pyrimido[5,4-d]pyrimidin-2-yl)piperazin-1-yl)prop-2-en-1-one], the figures for the IC50 at ErbB2 V777L and against EGFR WT were 0.05 to 0.1 µM and 0.1 to 0.5 µM, respectively.
Regarding `C=CC(=O)N[C@@H]1[C@@H]2CC[C@H]1CN(c1ncc3ncnc(Nc4ccc(Oc5ccc6c(c5)nnn6C)c(C)c4)c3n1)C2` [Compound 206, N-((1R,5S,8s)-3-(8-((3-methyl-4-((1-methyl-1H-benzo[d][1,2,3]triazol-5-yl)oxy)phenyl)amino)pyrimido[5,4-d]pyrimidin-2-yl)-3-azabicyclo[3.2.1]octan-8-yl)acrylamide], the IC50 on ErbB2 V777L was in the range of 0.05 to 0.1 µM; at EGFR WT, 0.1 to 0.5 µM.
`C=CC(=O)N1CC2CC(C1)N2c1ncc2ncnc(Nc3ccc(Oc4ccc5c(c4)nnn5C)c(C)c3)c2n1` [Compound 16, 1-(6-(8-((3-methyl-4-((1-methyl-1H-benzo[d][1,2,3]triazol-5-yl)oxy)phenyl)amino)pyrimido[5,4-d]pyrimidin-2-yl)-3,6-diazabicyclo[3.1.1]heptan-3-yl)prop-2-en-1-one]: the half-inhibitory concentration (IC50) against ErbB2 V777L and against EGFR WT was 0.1 to 0.5 µM each time.
As for `C=CC(=O)N1CCN(c2ncc3ncnc(Nc4ccc(Oc5cc6nnn(C)c6c(F)c5C)c(C)c4F)c3n2)C[C@H]1C` [Compound 176, (R)-1-(4-(8-((2-fluoro-4-((7-fluoro-1,6-dimethyl-1H-benzo[d][1,2,3]triazol-5-yl)oxy)-3-methylphenyl)amino)pyrimido[5,4-d]pyrimidin-2-yl)-2-methylpiperazin-1-yl)prop-2-en-1-one], the IC50 on ErbB2 V777L lay in the range of 0.5 to 1 µM; on EGFR WT, 0.1 to 0.5 µM.
As to `C=CC(=O)N1CCN(c2ccc3ncnc(Nc4ccc(Oc5ccc6c(c5)ncn6C(F)F)c(C)c4)c3n2)C[C@@H]1C1CC1` [Compound 278, (S)-1-(2-cyclopropyl-4-(4-((4-((1-(difluoromethyl)-1H-benzo[d]imidazol-5-yl)oxy)-3-methylphenyl)amino)pyrido[3,2-d]pyrimidin-6-yl)piperazin-1-yl)prop-2-en-1-one], the IC50 against ErbB2 V777L is 0.1 to 0.5 µM; on EGFR WT it was 0.5 to 1 µM.
The like results for `C=CC(=O)N1CC2CC1CN(c1ncc3ncnc(Nc4ccc(Oc5cc(F)c6c(c5)ncn6C)c(C)c4F)c3n1)C2` (stereo not drawn) [Compound 147, 1-(3-(8-((2-fluoro-4-((7-fluoro-1-methyl-1H-benzo[d]imidazol-5-yl)oxy)-3-methylphenyl)amino)pyrimido[5,4-d]pyrimidin-2-y1)-3,6-diazabicyclo[3.2.1]octan-6-yl)prop-2-en-1-one] were, in that order, 0.05 to 0.1 µM and under 0.05 µM.
For `C=CC(=O)N1CCN(c2ncc3ncnc(Nc4ccc(Oc5ccc6c(c5)nnn6C)c(C)c4)c3n2)[C@@H](C)C1` [Compound 18, (S)-1-(3-methyl-4-(8-((3-methyl-4-((1-methyl-1H-benzo[d][1,2,3]triazol-5-yl)oxy)phenyl)amino)pyrimido[5,4-d]pyrimidin-2-yl)piperazin-1-yl)prop-2-en-1-one 2,2,2-trifluoroacetate] the same measures were 0.05 to 0.1 µM and 0.1 to 0.5 µM.
The like results for `C=CC(=O)NC1CC=C(c2ccc3ncnc(Nc4ccc(Oc5ccc6c(c5)nnn6C)c(C)c4)c3n2)CC1` (stereo not drawn) [Compound 412, N-(4-(4-((3-methyl-4-((1-methyl-1H-benzo[d][1,2,3]triazol-5-yl)oxy)phenyl)amino)pyrido[3,2-d]pyrimidin-6-yl)cyclohex-3-en-1-yl)acrylamide] were, in that order, 0.1 to 0.5 µM and 0.1 to 0.5 µM.
